Legend:
[1] = Lipid peroxidation induced by AAPH peroxyl radicals in phospholipid liposomes (C11-BODIPY581/591 fluorescence); conditions: 10 mM AAPH, phosphate buffer, 40° C.; compared with tocopherol
Protocol: FIG. 4. Effect of nitrogen-containing 3-alkyl-1,4-benzoquinone derivatives on lipid peroxidation induced by peroxyl radicals generated from thermal decomposition of AAPH in phospholipid liposomes in phosphate buffer at 40° C. […] Relative fluorescence units are normalized to 100% intensity.
Several methods for assaying lipid peroxidation in vitro have been developed (Kuypers et al. (1987) Biochim Biophys Acta. 25, 266-274; Pap et al. (1999) FEBS Lett. 453, 278-282; Drummen et al. (2002) Free RadicBiol Med. 33, 473-490). Almost all of these methods are based on inhibition of free radical-induced oxidation reactions. A widely used fluorescence assay for lipid peroxidation uses lipid soluble cis-parinaric acid as a probe. cis-parinaric acid loses its fluorescence (λexc/em: 320/432 nm) upon interaction with peroxyl radicals and retains its fluorescence in the presence of radical quenchers. cis-parinaric acid is, however, air sensitive, photolabile and absorbs light in the UV region of the spectrum (at ˜320 nm). […] C11-BODIPY^581/591 (Molecular Probes, Eugene, Oreg., USA) stock solution concentrations were determined by measuring the absorption of C11-BODIPY^581/591 at 582 nm using a molar extinction coefficient of 140,000 mol^−1 cm^−1 (R. P. Haugland, (1999) Handbook of Fluorescent Probes and Research Chemicals, Molecular Probes, Inc., Eugene, Oreg.). […]

Hsp90 = Hsp90 client protein immunodetection assay (Her2 degradation, Hsp70 induction) in BT474 cells; format: cell-based, human; conditions: 24 h
Protocol: FIG. 9. A cell-based immunodetection assay was used to monitor Hsp90 client protein, Her2 protein degradation (A), and the induction of a heat shock response Hsp70 protein levels (B) in Her2-overexpressing BT474 cell line. The effects of 40 and geldanamycin were compared to vehicle (DMSO) after treatment with varying concentrations of the compounds for 24 h. Each measurement is an average of three independent experiments run in […].
The classic method of following the cellular activity of Hsp90 inhibitors is through the proteasome-dependent degradation of Hsp90 client proteins. […] Another hallmark of Hsp90 inhibition is the induction of a heat shock response, which was evaluated by determining the Hsp70 protein levels by […]. […] The plates were read immediately on a luminometer (Clarity™ luminescence microplate reader). Readings from wells containing only control IgG and the corresponding horseradish peroxidase-linked secondary antibody were set as background and subtracted from all measured values. The average chemiluminescence signals obtained were expressed as a percentage of Her2 reduction or Hsp70 induction in comparison to vehicle (DMSO). Values were calculated from three independent experiments performed in triplicate.

Row | Compound | Protection against lipid peroxidation in liposomes (in words) [1] | Hsp90 inhibition judged by client proteins Her2 and Hsp70 (in words) (Hsp90)
1 | CCCCCCCCCCCCCC1=C(OC)C(=O)C=C(NCCCC(=O)OCCCCCC)C1=O [Compound 18, Hexyl 4-(4-methoxy-3,6-dioxo-5-tridecylcyclohexa-1,4-dienylamino)butanoate] | significant protection against lipid peroxidation | 
2 | COC1=C2CCCCCCCCCCCCCCCNC(=CC1=O)C2=O [Compound 40] |  | did not inhibit Hsp90

From patent US9957214B2, “Multifunctional radical quenchers” (ARIZONA BOARD OF REGENTS ON BEHALF OF ARIZONA STATE …, priority 2012, dated 2018)
